# Assay results taken from article PMC7876005 (Communications Biology, 2021).
# Where a SMILES comes first, the peptide text is derived from it.
# Key:
# Pgk1 = target: T1, Pgk1 (Saccharomyces cerevisiae, UniProt P00560); test: microscale thermophoresis
# T1 sequence (P00560 2-416): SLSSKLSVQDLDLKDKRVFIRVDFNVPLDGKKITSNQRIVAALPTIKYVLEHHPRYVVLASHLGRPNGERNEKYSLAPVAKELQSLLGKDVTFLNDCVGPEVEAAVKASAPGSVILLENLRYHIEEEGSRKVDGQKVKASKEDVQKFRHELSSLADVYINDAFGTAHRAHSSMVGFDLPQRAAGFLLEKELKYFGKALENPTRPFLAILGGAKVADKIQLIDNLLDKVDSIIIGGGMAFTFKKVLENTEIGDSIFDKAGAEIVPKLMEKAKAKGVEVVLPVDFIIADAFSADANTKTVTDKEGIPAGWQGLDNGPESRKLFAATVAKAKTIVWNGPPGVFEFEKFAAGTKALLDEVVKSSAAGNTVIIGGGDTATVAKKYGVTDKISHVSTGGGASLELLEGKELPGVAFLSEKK
# Pnp1 = target: T2, Pnp1 (Saccharomyces cerevisiae, UniProt Q05788); test: LC-MS assay of inosine conversion to hypoxanthine; type: biochemical
# T2 construct: recombinant, overexpressed in yeast ORF collection strain (Dharmacon), purified; monomeric mass 33 kDa
# T2 sequence (Q05788 2-311): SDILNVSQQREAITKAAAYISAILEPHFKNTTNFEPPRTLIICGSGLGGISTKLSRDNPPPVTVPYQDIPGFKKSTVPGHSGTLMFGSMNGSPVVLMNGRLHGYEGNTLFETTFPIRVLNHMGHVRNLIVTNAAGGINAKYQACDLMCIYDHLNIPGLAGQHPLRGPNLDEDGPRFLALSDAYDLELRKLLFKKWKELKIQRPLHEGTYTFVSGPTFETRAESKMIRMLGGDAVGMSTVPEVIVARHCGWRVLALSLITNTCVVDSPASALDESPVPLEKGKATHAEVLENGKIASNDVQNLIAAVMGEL
SMILES,Kd (Pgk1) [µM],inhibition at 100 µM (Pnp1) [%]
CC(C)C[C@H](NC(=O)[C@@H](N)CO)C(=O)O [Ser-Leu] (H-Ser-Leu-OH),416,
Nc1ncnc2c1ncn2[C@@H]1O[C@H](COP(=O)(O)OP(=O)(O)OP(=O)(O)O)[C@@H](O)[C@H]1O [ATP],122,
O=c1[nH]c(=O)c2[nH]cnc2[nH]1 [xanthine],,< 32
